In test [1] the target is T1, Apoptotic protease-activating factor 1 (Homo sapiens, UniProt O14727).
T1 sequence (O14727 whole entry): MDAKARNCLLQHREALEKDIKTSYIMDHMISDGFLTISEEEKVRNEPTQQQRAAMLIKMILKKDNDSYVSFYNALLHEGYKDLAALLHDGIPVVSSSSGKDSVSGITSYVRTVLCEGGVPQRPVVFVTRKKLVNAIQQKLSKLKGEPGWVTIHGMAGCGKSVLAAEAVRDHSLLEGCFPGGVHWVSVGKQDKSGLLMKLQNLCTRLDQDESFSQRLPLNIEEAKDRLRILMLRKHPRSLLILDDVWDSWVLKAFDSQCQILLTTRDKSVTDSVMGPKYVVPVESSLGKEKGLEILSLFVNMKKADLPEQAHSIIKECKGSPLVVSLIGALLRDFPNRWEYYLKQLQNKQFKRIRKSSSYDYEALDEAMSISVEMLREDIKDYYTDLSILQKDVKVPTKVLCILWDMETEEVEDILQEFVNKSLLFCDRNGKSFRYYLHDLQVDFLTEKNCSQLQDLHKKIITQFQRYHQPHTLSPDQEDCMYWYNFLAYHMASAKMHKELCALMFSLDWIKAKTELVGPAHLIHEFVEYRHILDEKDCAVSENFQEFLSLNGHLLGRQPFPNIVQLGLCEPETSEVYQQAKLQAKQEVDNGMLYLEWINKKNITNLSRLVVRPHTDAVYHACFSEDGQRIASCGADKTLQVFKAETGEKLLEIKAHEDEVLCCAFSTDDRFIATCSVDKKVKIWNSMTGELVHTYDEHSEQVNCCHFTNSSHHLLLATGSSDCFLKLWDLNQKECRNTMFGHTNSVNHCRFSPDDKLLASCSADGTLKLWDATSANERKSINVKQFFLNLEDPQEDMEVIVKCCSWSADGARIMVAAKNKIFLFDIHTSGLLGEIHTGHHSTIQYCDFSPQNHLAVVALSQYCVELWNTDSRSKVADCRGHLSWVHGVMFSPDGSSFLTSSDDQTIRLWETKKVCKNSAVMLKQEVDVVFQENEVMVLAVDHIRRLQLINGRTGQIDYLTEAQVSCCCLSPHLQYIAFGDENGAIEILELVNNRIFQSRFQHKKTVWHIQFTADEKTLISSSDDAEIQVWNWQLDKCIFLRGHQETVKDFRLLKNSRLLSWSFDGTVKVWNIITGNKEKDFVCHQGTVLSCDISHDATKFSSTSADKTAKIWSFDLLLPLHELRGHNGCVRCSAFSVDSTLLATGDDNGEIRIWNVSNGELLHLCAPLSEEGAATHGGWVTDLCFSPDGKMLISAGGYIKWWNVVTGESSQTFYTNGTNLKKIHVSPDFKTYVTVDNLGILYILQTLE
The test is classed as functional.

The nature of test [2]: inhibitors of SNCA 5'UTR-driven reporter translation, confirmation, H4 neuroglioma cells, luminescence (AID 1988). The test is classed as functional, cell-based.
The target in test [3] is T2, Tyrosyl-DNA phosphodiesterase 2 (Homo sapiens, UniProt O95551).
T2 sequence (O95551 whole entry): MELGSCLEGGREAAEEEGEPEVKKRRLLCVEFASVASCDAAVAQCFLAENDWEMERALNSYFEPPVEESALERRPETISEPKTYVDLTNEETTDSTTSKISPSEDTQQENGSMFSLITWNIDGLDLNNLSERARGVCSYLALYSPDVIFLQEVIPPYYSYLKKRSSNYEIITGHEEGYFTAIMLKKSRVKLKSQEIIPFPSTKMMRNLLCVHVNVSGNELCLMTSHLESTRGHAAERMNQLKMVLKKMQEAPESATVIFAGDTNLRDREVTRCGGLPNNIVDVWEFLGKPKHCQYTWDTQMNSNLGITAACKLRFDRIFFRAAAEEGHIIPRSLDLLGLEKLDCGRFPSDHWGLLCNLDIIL
Put plainly: human TDP2 enzyme inhibitors, dose response, biochemical, epi absorbance, IC50 (AID 743297).

Another test deals with T3, Caspase-6 (Homo sapiens, UniProt P55212).
T3 sequence (P55212 whole entry): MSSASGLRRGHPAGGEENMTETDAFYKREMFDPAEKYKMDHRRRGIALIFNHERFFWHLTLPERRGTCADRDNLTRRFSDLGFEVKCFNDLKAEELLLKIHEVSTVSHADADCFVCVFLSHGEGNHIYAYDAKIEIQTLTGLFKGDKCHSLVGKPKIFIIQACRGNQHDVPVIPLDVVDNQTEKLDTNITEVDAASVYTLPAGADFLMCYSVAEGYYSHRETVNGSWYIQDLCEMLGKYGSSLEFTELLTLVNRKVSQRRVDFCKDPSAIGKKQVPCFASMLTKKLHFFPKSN
Put plainly: human caspase-6 inhibitors, dose response, biochemical, VEID-R110 fluorescence, cherry-pick (AID 720632).

The target in test [4] is Calcium/calmodulin-dependent protein kinase type II subunit gamma (Homo sapiens, UniProt Q13555). Format: functional.
Test [5] deals with Tyrosine-protein kinase ITK/TSK (Homo sapiens, UniProt Q08881). Format: functional.
Test [6] deals with Protein kinase C gamma type (Homo sapiens, UniProt P05129). Format: functional.
In test [7] the target is Serine/threonine-protein kinase PLK3 (Homo sapiens, UniProt Q9H4B4). Format: functional.
For test [8], the target named is Tyrosine-protein kinase Srms (Homo sapiens, UniProt Q9H3Y6). Format: functional.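 Note: SRMS measured as one member of a kinome-wide kinase profiling panel.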

Calls of active or inactive are those of the source.

Calcium/calmodulin-dependent protein kinase type II subunit gamma, sequence (Q13555 whole entry): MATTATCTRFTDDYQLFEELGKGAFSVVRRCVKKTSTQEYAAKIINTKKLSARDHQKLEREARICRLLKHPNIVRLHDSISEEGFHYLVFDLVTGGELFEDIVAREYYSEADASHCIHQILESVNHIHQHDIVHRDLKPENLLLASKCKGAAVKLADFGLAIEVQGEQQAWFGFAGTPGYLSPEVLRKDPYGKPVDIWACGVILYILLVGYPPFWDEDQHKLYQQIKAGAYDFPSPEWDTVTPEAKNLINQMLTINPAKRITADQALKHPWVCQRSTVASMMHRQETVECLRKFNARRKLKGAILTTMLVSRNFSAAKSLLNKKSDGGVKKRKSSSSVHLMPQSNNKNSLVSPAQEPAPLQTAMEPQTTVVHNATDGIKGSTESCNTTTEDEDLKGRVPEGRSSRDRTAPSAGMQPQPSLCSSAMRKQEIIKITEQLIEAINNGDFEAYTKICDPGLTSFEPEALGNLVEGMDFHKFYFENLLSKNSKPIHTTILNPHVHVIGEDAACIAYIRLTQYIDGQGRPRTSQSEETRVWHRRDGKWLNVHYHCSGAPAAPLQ
Tyrosine-protein kinase ITK/TSK, sequence (Q08881 whole entry): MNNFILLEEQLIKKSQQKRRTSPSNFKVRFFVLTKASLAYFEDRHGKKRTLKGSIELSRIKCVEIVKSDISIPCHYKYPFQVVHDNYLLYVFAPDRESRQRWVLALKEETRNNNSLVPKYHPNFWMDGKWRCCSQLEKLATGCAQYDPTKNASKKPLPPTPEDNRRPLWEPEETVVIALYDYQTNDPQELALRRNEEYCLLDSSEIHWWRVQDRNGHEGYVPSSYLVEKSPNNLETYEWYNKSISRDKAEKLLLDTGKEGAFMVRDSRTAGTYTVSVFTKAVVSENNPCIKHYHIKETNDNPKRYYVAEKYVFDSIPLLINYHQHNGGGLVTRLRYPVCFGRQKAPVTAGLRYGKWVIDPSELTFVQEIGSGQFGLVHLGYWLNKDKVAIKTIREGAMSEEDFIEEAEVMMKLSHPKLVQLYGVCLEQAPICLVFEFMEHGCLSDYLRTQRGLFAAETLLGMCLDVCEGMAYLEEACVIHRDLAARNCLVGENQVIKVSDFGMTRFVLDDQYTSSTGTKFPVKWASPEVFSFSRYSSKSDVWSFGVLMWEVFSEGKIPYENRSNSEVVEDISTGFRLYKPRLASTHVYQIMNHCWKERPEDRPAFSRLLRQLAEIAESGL
Serine/threonine-protein kinase PLK3, sequence (Q9H4B4 whole entry): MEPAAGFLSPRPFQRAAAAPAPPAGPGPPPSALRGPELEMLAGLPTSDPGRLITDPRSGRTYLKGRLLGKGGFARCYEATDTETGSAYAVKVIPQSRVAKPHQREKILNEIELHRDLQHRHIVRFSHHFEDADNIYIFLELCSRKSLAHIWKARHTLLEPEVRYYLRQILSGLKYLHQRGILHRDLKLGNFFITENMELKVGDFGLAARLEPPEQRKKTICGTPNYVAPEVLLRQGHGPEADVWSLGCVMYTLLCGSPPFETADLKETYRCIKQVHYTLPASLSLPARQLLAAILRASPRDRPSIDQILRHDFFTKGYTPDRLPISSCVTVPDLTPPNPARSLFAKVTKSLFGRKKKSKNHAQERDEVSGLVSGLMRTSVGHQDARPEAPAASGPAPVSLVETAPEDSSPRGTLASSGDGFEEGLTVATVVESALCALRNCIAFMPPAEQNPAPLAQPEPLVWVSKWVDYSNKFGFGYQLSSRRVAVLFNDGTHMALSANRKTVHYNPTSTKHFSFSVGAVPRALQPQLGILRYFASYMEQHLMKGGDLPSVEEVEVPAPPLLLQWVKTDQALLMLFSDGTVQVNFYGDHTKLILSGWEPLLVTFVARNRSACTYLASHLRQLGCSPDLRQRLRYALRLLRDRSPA
Tyrosine-protein kinase Srms, sequence (Q9H3Y6 whole entry): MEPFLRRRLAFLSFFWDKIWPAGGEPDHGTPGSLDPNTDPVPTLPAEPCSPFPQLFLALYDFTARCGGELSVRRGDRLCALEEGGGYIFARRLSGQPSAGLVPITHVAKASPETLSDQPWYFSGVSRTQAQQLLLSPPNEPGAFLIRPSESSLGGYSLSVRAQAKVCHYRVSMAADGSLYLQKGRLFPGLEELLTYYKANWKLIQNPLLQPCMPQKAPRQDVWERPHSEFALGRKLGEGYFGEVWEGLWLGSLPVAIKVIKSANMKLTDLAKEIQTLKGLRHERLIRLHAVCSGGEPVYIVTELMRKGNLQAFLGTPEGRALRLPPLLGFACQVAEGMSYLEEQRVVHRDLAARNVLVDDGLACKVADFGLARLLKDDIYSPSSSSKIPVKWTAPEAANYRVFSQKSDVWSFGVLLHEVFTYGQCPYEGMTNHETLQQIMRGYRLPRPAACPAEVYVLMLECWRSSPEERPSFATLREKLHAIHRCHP

On to `O=C1C=C(N2CCCCC2)c2ccccc2C1=O`, for which the IC50 in [1] was 2.12 µM (active); in test [3], 5.32 µM (active). Besides, the EC50 in [2] is 9.02 µM (active).
Turning to `CC(=O)NC1C(=O)N(CCN2CCOCC2)c2ccc(F)cc21` (stereo not drawn), the AC50 at Caspase-6 was 16 µM (active). Also, the IC50 in [3] was 33.4 µM (inactive).
`O=C(CCc1ccccc1)NNc1cc(N2CCCCC2)nc(N2CCCCC2)n1`: the IC50 in [1] is 3.62 µM (active). Also, the concentration for a half-maximal effect (EC50) in [2] was > 120 µM (not active).
For the compound `Cc1n[nH]c2ccc(-c3cncc(OCC(N)Cc4cccc(Cl)c4)c3)cc12` (stereo not drawn), the Ki is 0.00398 µM (active) in test [4]; > 1.58 µM (inactive) in test [5]; 0.00631 µM (active) in test [6]; > 7.94 µM (inactive) in test [7]; > 1.58 µM (inactive) in test [8]. Further, in test [4], the pKi stood at 8.4.

A word on the IC50: it is the concentration that gives 50% inhibition. In general, EC50 refers to the concentration at which the effect is half-maximal. As usually defined, the AC50 is the concentration at which the activity in the assay is half-maximal. One may read the Ki as the equilibrium dissociation constant of an inhibitor or competing ligand from its target. One may read the pKi as the Ki on a negative log10 scale, so that one unit is a factor of ten.

These data come from ChEMBL document CHEMBL1201862, “PubChem BioAssay data set” (2004).
